In patent US20210070748A1, “INHIBITORS OF BRUTONS TYROSINE KINASE” (Pharmacyclics LLC, priority 2015, published 2021) one finds IC50 data, which are given here for 13 molecules.

Common to all, as to type: biochemical
One assay deals with EGFR (Homo sapiens, UniProt P00533). As to the kind of experiment: Inhibition of a panel of kinases, in vitro HotSpot kinase assay: EGFR. As to conditions: D-compounds panel data; 1 μM ATP. The protocol: (§1) The degree of inhibition of a panel of kinases is determined using the in vitro HotSpot kinase assay (purified enzymes, ^33P-ATP, an appropriate substrate and 1 μM ATP).
Another assay has as its target T1, JAK3 (Homo sapiens, UniProt P52333).
T1 sequence (P52333 1-1124): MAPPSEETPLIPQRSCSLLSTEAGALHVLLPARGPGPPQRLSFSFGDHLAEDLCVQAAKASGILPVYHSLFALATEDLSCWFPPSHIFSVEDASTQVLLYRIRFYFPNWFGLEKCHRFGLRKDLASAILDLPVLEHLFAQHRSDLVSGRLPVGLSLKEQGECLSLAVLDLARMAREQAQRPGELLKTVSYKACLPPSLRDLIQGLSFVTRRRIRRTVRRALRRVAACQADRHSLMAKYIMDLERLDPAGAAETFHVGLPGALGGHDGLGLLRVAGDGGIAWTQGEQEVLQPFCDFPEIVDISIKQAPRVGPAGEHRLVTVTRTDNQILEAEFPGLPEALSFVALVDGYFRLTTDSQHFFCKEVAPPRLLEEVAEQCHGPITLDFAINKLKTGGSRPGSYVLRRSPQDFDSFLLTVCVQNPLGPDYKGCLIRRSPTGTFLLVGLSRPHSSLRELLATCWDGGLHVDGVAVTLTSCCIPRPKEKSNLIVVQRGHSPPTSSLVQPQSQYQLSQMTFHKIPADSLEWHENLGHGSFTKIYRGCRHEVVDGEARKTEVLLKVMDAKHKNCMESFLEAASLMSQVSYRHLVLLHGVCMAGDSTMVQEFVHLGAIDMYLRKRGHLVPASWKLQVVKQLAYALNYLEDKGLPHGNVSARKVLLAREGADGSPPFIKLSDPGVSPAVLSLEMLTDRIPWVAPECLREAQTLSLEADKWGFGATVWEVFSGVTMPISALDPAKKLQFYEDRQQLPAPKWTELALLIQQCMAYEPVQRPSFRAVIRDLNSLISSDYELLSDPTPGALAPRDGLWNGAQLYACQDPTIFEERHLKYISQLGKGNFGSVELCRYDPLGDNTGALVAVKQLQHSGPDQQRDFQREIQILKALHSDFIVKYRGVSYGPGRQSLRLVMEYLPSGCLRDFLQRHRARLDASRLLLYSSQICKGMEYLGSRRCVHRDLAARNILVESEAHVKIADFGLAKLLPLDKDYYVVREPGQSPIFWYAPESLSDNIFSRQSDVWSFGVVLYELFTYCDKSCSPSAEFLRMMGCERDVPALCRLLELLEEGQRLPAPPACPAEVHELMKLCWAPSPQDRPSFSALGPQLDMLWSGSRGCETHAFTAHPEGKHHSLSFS
Put plainly: Inhibition of a panel of kinases, in vitro HotSpot kinase assay: JAK3. As to conditions: D-compounds panel data; 1 μM ATP; read-out: IC50 JAK3.

For another assay, the target named is SRC (Homo sapiens, UniProt P12931). As to the kind of experiment: Inhibition of a panel of kinases, in vitro HotSpot kinase assay: SRC. Particulars: D-compounds panel data; 1 μM ATP. The protocol: as §1
The target of a further assay is T2, ITK (Homo sapiens, UniProt Q08881).
T2 sequence (Q08881 1-620): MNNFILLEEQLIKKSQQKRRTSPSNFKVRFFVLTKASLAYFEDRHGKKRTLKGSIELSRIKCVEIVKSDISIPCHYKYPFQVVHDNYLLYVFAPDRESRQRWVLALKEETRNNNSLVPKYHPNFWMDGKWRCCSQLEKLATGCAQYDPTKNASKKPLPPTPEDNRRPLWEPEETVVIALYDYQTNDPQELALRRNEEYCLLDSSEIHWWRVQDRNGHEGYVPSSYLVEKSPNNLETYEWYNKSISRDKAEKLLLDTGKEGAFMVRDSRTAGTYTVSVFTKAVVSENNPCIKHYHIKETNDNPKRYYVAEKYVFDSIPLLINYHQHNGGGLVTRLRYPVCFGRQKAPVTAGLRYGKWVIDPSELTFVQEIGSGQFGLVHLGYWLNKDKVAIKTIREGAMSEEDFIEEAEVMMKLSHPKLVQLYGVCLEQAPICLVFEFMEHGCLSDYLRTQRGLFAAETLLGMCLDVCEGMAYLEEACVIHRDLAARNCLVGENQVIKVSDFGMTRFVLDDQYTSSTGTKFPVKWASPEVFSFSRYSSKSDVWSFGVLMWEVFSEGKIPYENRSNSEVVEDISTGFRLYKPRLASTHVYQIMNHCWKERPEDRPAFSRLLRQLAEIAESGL
As to the kind of experiment: Inhibition of a panel of kinases, in vitro HotSpot kinase assay: ITK. Particulars: D-compounds panel data; 1 μM ATP. Here is the method:
as §1

The target in the next assay is LCK (Homo sapiens, UniProt P06239). As to the kind of experiment: Inhibition of a panel of kinases, in vitro HotSpot kinase assay: LCK. As to conditions: D-compounds panel data; 1 μM ATP; read-out: IC50 LCK.
Chain of LCK (P06239 whole entry): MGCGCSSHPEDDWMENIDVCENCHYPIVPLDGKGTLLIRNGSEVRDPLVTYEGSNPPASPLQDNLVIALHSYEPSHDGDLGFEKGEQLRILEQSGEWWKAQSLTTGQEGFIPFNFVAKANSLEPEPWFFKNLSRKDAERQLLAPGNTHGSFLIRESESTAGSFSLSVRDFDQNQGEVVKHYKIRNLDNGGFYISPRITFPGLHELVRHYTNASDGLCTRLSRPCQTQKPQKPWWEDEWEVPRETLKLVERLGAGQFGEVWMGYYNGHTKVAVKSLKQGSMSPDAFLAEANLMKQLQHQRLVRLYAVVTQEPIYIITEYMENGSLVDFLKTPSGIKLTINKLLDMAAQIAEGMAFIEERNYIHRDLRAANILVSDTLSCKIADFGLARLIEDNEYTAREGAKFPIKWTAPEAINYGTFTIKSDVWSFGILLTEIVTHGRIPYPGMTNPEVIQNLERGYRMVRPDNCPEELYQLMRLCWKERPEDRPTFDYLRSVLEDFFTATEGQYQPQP

Chain of EGFR (P00533 25-1210): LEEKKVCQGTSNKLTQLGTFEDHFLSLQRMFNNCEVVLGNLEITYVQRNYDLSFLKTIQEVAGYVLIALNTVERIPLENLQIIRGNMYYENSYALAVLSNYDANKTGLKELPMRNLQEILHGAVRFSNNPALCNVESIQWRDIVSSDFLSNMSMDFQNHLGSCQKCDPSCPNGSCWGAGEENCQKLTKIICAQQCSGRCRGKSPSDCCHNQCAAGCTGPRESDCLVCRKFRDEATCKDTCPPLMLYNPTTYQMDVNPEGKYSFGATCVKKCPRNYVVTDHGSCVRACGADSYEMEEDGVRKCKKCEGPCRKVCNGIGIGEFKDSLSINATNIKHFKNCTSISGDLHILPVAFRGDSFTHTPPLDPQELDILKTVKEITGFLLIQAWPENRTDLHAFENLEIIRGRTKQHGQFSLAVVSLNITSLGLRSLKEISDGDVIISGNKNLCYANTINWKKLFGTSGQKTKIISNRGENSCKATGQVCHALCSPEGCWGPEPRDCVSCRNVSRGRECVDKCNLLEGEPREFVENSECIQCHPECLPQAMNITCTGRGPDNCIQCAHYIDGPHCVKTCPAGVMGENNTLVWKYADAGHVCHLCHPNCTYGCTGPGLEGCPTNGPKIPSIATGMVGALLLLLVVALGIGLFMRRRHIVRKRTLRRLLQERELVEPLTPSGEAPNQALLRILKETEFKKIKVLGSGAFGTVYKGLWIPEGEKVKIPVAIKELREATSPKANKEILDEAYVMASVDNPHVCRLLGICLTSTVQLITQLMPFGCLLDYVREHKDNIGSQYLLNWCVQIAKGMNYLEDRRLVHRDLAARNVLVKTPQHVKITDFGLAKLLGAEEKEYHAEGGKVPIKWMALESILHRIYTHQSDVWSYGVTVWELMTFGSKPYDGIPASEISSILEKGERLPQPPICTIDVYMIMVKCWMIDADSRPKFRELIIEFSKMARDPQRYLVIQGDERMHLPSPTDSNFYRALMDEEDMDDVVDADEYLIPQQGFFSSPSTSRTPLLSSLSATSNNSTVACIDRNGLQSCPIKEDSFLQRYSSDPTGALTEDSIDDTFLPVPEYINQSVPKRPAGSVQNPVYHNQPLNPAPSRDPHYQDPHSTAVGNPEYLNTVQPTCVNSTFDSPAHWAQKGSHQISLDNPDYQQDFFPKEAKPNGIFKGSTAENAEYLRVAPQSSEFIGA
Chain of SRC (P12931 whole entry): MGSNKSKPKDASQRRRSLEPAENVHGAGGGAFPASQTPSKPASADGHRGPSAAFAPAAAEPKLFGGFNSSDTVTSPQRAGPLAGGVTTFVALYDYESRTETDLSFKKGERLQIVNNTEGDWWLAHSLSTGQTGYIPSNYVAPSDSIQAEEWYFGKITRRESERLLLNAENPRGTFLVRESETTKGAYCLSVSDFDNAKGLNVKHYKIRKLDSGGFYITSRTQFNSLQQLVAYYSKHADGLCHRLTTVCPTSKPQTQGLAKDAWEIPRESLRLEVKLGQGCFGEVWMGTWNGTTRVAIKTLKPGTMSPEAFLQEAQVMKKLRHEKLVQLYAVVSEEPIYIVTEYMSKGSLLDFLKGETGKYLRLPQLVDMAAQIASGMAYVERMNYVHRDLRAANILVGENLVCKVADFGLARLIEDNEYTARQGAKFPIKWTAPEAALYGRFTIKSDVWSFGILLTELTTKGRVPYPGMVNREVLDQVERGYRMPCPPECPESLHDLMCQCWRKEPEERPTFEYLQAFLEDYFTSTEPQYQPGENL

As to `CCOCCOc1ccc(Nc2nc(N3CCC[C@@H](NC(=O)c4ccc(C5CC5)cc4)[C@H]3C)cnc2C(N)=O)cc1` [Example D-299, 5-[(2R,3R)-3-(4-cyclopropylbenzamido)-2-methylpiperidin-1-yl]-3-{[4-(2-ethoxyethoxy)phenyl]amino}pyrazine-2-carboxamide], the IC50 at EGFR is above 10000 nM; at JAK3 it was above 10000 nM; on SRC it was 1000 to 10000 nM; on ITK, above 10000 nM; at LCK, above 10000 nM.

Take `C[C@@H]1[C@H](NC(=O)c2ccc(C(O)C(F)(F)F)cc2)CCCN1c1cnc(C(N)=O)c(Nc2cnn(C)c2)n1` (single isomer, unassigned) [Example D-250]: the IC50 lay in the range of 100 to 1000 nM on EGFR; 100 to 1000 nM on JAK3; 10 to 100 nM against SRC; 100 to 1000 nM on ITK; 10 to 100 nM at LCK.

Consider `Cc1cc2cc(C(=O)N[C@@H]3CCCN(c4cnc(C(N)=O)c(Nc5cnn(C)c5)n4)[C@@H]3C)ccc2o1` [Example D-246, 3-[(1-methyl-1H-pyrazol-4-yl)amino]-5-[(2R,3R)-2-methyl-3-(2-methyl-1-benzofuran-5-amido)piperidin-1-yl]pyrazine-2-carboxamide], for which the IC50 on EGFR was in the range of 1000 to 10000 nM; at JAK3, 1000 to 10000 nM; against SRC it was 10 to 100 nM; against ITK, 100 to 1000 nM; on LCK, 10 to 100 nM.

In the case of `C[C@@H]1[C@H](NC(=O)c2ccc(C3(CO)CC3)cc2)CCCN1c1cnc(C(N)=O)c(Nc2cnn(C)c2)n1` [Example D-260, 5-[(2R,3R)-3-{4-[1-(hydroxymethyl)cyclopropyl]benzamido}-2-methylpiperidin-1-yl]-3-[(1-methyl-1H-pyrazol-4-yl)amino]pyrazine-2-carboxamide], the IC50 on EGFR is 1000 to 10000 nM; on JAK3, 1000 to 10000 nM; at SRC, 10 to 100 nM; against ITK it was 100 to 1000 nM; on LCK, 10 to 100 nM.

`C[C@@H]1[C@H](NC(=O)c2coc(C3CC3)n2)CCCN1c1cnc(C(N)=O)c(Nc2cnn(C)c2)n1` [Example D-257, 5-[(2R,3R)-3-(2-cyclopropyl-1,3-oxazole-4-amido)-2-methylpiperidin-1-yl]-3-[(1-methyl-1H-pyrazol-4-yl)amino]pyrazine-2-carboxamide]: the IC50 against EGFR is 100 to 1000 nM; at JAK3, 100 to 1000 nM; against SRC, 10 to 100 nM; against ITK it was 100 to 1000 nM; on LCK it was 10 to 100 nM.

Regarding `C[C@@H]1[C@H](NC(=O)c2ccc(C3CC3)cc2)CCCN1c1cnc(C(N)=O)c(Nc2cnn(C3CCN(C(=O)C4(C)COC4)CC3)c2)n1` [Example D-289, 5-[(2R,3R)-3-(4-cyclopropylbenzamido)-2-methylpiperidin-1-yl]-3-({1-[1-(3-methyloxetane-3-carbonyl)piperidin-4-yl]-1H-pyrazol-4-yl}amino)pyrazine-2-carboxamide], the IC50 is 100 to 1000 nM at EGFR; 1000 to 10000 nM at JAK3; at most 10 nM on SRC; 10 to 100 nM against ITK; 10 to 100 nM on LCK.

Take `C[C@@H]1[C@H](NC(=O)c2cc(C(C)(C)C)on2)CCCN1c1cnc(C(N)=O)c(Nc2cnn(C)c2)n1` [Example D-247, 5-[(2R,3R)-3-(5-tert-butyl-1,2-oxazole-3-amido)-2-methylpiperidin-1-yl]-3-[(1-methyl-1H-pyrazol-4-yl)amino]pyrazine-2-carboxamide]: the IC50 against EGFR was in the range of 1000 to 10000 nM; on JAK3, 1000 to 10000 nM; at SRC it was 100 to 1000 nM; at ITK, 100 to 1000 nM; on LCK, 100 to 1000 nM.

For `C[C@@H]1[C@H](NC(=O)c2ccc(C3CC3)cc2)CCCN1c1cnc(C(N)=O)c(Nc2cnn(C3CC3)c2)n1` [Example D-279, 3-[(1-cyclopropyl-1H-pyrazol-4-yl)amino]-5-[(2R,3R)-3-(4-cyclopropylbenzamido)-2-methylpiperidin-1-yl]pyrazine-2-carboxamide], the IC50 was 1000 to 10000 nM against EGFR; above 10000 nM at JAK3; 100 to 1000 nM at SRC; 100 to 1000 nM at ITK; 100 to 1000 nM at LCK.

Take `C[C@@H]1[C@H](NC(=O)c2ccc(C3CC3)cn2)CCCN1c1cnc(C(N)=O)c(Nc2ccc(OC3CCN(C)CC3)cc2)n1` [Example D-297, 5-[(2R,3R)-3-(5-cyclopropylpyridine-2-amido)-2-methylpiperidin-1-yl]-3-({4-[(1-methylpiperidin-4-yl)oxy]phenyl}amino)pyrazine-2-carboxamide]: the half-inhibitory concentration (IC50) was in the range of 100 to 1000 nM on EGFR; 100 to 1000 nM at JAK3; 10 to 100 nM at SRC; 10 to 100 nM at ITK; 10 to 100 nM at LCK.

With `C[C@@H]1[C@H](NC(=O)c2ccc(C(C)(O)CO)cc2)CCCN1c1cnc(C(N)=O)c(Nc2cnn(C)c2)n1` (single isomer, unassigned) [Example D-265], the IC50 was 100 to 1000 nM against EGFR; 100 to 1000 nM at JAK3; 10 to 100 nM on SRC; 100 to 1000 nM against ITK; 100 to 1000 nM at LCK.

In the case of `COCCN(C)Cc1cc(Nc2nc(N3CCC[C@@H](NC(=O)c4ccc(C5CC5)cc4)[C@H]3C)cnc2C(N)=O)sn1` [Example D-269, 5-[(2R,3R)-3-(4-cyclopropylbenzamido)-2-methylpiperidin-1-yl]-3-[(3-{[(2-methoxyethyl)(methyl)amino]methyl}-1,2-thiazol-5-yl)amino]pyrazine-2-carboxamide], the IC50 on EGFR was above 10000 nM; at JAK3, 1000 to 10000 nM; at SRC, 10 to 100 nM; against ITK, 100 to 1000 nM; on LCK it was 100 to 1000 nM.

In the case of `C[C@@H]1[C@H](NC(=O)c2ccc(C(C)(C)O)cc2F)CCCN1c1nnc(C(N)=O)c(Nc2cnn(C)c2)n1` [Example D-308, 3-[(2R,3R)-3-[2-fluoro-4-(2-hydroxypropan-2-yl)benzamido]-2-methylpiperidin-1-yl]-5-[(1-methyl-1H-pyrazol-4-yl)amino]-1,2,4-triazine-6-carboxamide], the IC50 against EGFR fell in the range of 1000 to 10000 nM; on JAK3, 1000 to 10000 nM; against SRC, 10 to 100 nM; on ITK, 10 to 100 nM; at LCK, 10 to 100 nM.

Consider `C[C@@H]1[C@H](NC(=O)N(C)C2CC2)CCCN1c1cnc(C(N)=O)c(Nc2cnn(C)c2)n1` [Example D-314, 5-[(2R,3R)-3-{[cyclopropyl(methyl)carbamoyl]amino}-2-methylpiperidin-1-yl]-3-[(1-methyl-1H-pyrazol-4-yl)amino]pyrazine-2-carboxamide], for which the IC50 on EGFR fell in the range of 1000 to 10000 nM; on JAK3, 1000 to 10000 nM; at SRC, 10 to 100 nM; against ITK it was 100 to 1000 nM; on LCK, 100 to 1000 nM.
